13 compounds from patent US9328138B2 (priority 2011, dated 2016) can be followed below.

The target of assay [1] is T1, HCV genotype 1b (BK) NS3 modified enzyme with a R155K mutation (Hepatitis C virus genotype 1b, UniProt P26663, R1181K).
T1 construct: HCV genotype 1b (BK) NS3 modified enzyme
The assay is described as follows: HCV NS3 protease time-resolved fluorescence (TRF) assay, genotype 1b R155K. Format: biochemical. The conditions noted are these: Ki 1b R155K, genotype 1b (BK) NS3 R155K; single value. A digest of the protocol: (§1)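 Time-resolved fluorescence, ex 340/em 615 nm, 400 μs delay; IC50 by four-parameter fit. Enzyme preincubated with compound 10 min, then TRF substrate 25 nM final added and reaction run 6 h at RT. Buffer HEPES pH 7.5 with NaCl, glycerol, Triton X-100, DTT, PEG 8000.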

In assay [2] the target is HCV NS3 protease genotype 3a (3A-1) (Hepatitis C virus genotype 3a, UniProt Q81258). The assay is described as follows: HCV NS3 protease time-resolved fluorescence (TRF) assay, genotype 3a. The conditions noted are these: Ki 3a. Format: biochemical. The essentials:
as §1

One may read the Ki as a measure of affinity in units of concentration, obtained from inhibition or displacement. The low end stands for a stronger hold on the target, the high end for a looser hold on the target.

Turning to `C=C[C@@H]1C[C@]1(NC(=O)[C@@H]1C[C@@H]2CN1C(=O)[C@H](C(C)(C)C)NC(=O)O[C@@H]1C[C@H]1CCCCCc1c(nc3ccccc3c1OCCCN1CCCC1=O)O2)C(=O)NS(=O)(=O)C1(C)CC1` [Example 118, (1aR,5S,8S,10R,22aR)-5-tert-butyl-N-[(1R,2S)-2-ethenyl-1-{[(1-methylcyclopropyl)sulfonyl]carbamoyl}cyclopropyl]-3,6-dioxo-17-[3-(2-oxopyrrolidin-1-yl)propoxy]-1,1a,3,4,5,6,9,10,18,19,20,21,22,22a-tetradeca hydro-8H-7,10-methano cyclopropa[18,19][1,10,3,6] dioxadiazacyclononadecino [11,12-b]quinoline-8-carboxamide], the inhibitory constant (Ki) in assay [1] stood at 0.066 nM; in assay [2] it was 0.89 nM.
`C=C[C@@H]1C[C@]1(NC(=O)[C@@H]1C[C@@H]2CN1C(=O)[C@H](C(C)(C)C)NC(=O)O[C@@H]1C[C@H]1CCCCCc1c(nc3ccccc3c1OC)O2)C(=O)NS(=O)(=O)C1(C)CC1` [Example 119]: the figures for the Ki in assay [1] and in assay [2] were 0.12 nM and 3.2 nM, respectively.
On to `C=C[C@@H]1C[C@]1(NC(=O)[C@@H]1C[C@@H]2CN1C(=O)[C@H](C(C)(C)C)NC(=O)O[C@@H]1C[C@H]1CCCCCc1c(nc3ccccc3c1O)O2)C(=O)NS(=O)(=O)C1(C)CC1` [Example 120, (1aR,5S,8S,10R,22aR)-5-tert-butyl-N-[(1R,2S)-2-ethenyl-1-{[(1-methylcyclopropyl)sulfonyl]carbamoyl}cyclopropyl]-17-hydroxy-3,6-dioxo-1,1a,3,4,5,6,9,10,18, 19,20,212,22,22a-tetradeca hydro-8H-7,10-methanocyclopropa [18,19][1,10,3,6]dioxadiazacyclo-nonadecino [11,12-b]quinoline-8-carboxamide], for which the figures for the inhibition constant (Ki) in assay [1] and in assay [2] were 0.062 nM and 1.1 nM, respectively.
`C=C[C@@H]1C[C@]1(NC(=O)[C@@H]1C[C@@H]2CN1C(=O)[C@H](C1CCCC1)NC(=O)O[C@@H]1C[C@H]1CCCCCc1c(nc3ccccc3c1OCCN1CCOCC1)O2)C(=O)NS(=O)(=O)C1(C)CC1` [Example 121, (1aR,5S,8S,10R,22aR)-5-cyclopentyl-N-[(1R,2S)-2-ethenyl-1-{[(1-methylcyclopropyl)sulfonyl]carbamoyl}cyclopropyl]-17-[2-(morpholin-4-yl)ethoxy]-3,6-dioxo-1,1a,3,4,5,6,9,10,18,19,20,21,22, 22a-tetradeca hydro-8H-7,10-methanocyclopropa[18,19][1,10,3,6] dioxadiazacyclononadecino [11,12-b]quinoline-8-carboxamide]: the inhibition constant Ki in assay [1] amounted to 0.38 nM; in assay [2], 12 nM.
Consider `C=C[C@@H]1C[C@]1(NC(=O)[C@@H]1C[C@@H]2CN1C(=O)[C@H](C1CCCCC1)NC(=O)O[C@@H]1C[C@H]1CCCCCc1c(nc3ccccc3c1OCCN1CCOCC1)O2)C(=O)NS(=O)(=O)C1(C)CC1` [Example 122, (1aR,5S,8S,10R,22aR)-5-cyclohexyl-N-[(1R,2S)-2-ethenyl-1-{[(1-methylcyclopropyl)sulfonyl]carbamoyl}cyclopropyl]-17-[2-(morpholin-4-yl)ethoxy]-3,6-dioxo-1,1,a,3,4,5,6,9,10,18,19,20,21, 22,22a-tetradecahydro-8H-7,10-methanocyclopropa[18,19][1,10,3,6] dioxadiazacyclononadecino [11,12-b]quinoline-8-carboxamide], for which the inhibitory constant (Ki) in assay [1] came out at 0.33 nM; in assay [2], 8.8 nM.
The corresponding values for `C=C[C@@H]1C[C@]1(NC(=O)[C@@H]1C[C@@H]2CN1C(=O)[C@H](C1(C)CCCCC1)NC(=O)O[C@@H]1C[C@H]1CCCCCc1c(nc3ccccc3c1OCCN1CCOCC1)O2)C(=O)NS(=O)(=O)C1(C)CC1` [Example 123, (1aR,5S,8S,10R,22aR)-N-[(1R,2S)-2-ethenyl-1-{[(1-methylcyclopropyl)sulfonyl]carbamoyl}cyclopropyl]-5-(1-methylcyclohexyl)-17-[2-(morpholin-4-yl)ethoxy]-3,6-dioxo-1,1a,3,4,5,6,9,10,18,19,20,21,22,22a-tetradecahydro-8H-7,10-methanocyclopropa[18,19] [1,10,3,6]dioxadiazacyclononadecino [11,12-b]quinoline-8-carboxamide] are 0.49 nM and 6.1 nM.
The corresponding values for `C=C[C@@H]1C[C@]1(NC(=O)[C@@H]1C[C@@H]2CN1C(=O)[C@H](C(C)C)NC(=O)O[C@@H]1C[C@H]1CCCCCc1c(nc3ccccc3c1OCCN1CCOCC1)O2)C(=O)NS(=O)(=O)C1(C)CC1` [Example 124, (1aR,5S,8S,10R,22aR)-N-[(1R,2S)-2-ethenyl-1-{[(1-methylcyclopropyl)sulfonyl]carbamoyl}cyclopropyl]-17-[2-(morpholin-4-yl)ethoxy]-3,6-dioxo-5-(propan-2-yl)-1,1a,3,4,5,6,9,10,18,19,20,21,22,22a-tetradeca hydro-8H-7,10-methano cyclopropa[18,19][1,10,3,6] dioxadiazacyclonona decino[11,12-b]quinoline-8-carboxamide] are 0.79 nM and 10 nM.
Taken in the same sequence, the figures for `C=C[C@@H]1C[C@]1(NC(=O)[C@@H]1C[C@@H]2CN1C(=O)[C@H](CC1CCCCC1)NC(=O)O[C@@H]1C[C@H]1CCCCCc1c(nc3ccccc3c1OCCN1CCOCC1)O2)C(=O)NS(=O)(=O)C1(C)CC1` [Example 125, (1aR,5S,8S,10R,22aR)-5-(cyclohexylmethyl)-N-[(1R,2S)-2-ethenyl-1-{[(1-methylcyclopropyl)sulfonyl]carbamoyl}cyclopropyl]-17-[2-(morpholin-4-yl)ethoxy]-3,6-dioxo-1,1a,3,4,5,6,9,10,18,19,20, 21,22,22a-tetradecahydro-8H-7,10-methanocyclopropa [18,19][1,10,3,6]dioxadiazacyclo nonadecino[11,12-b]quinoline-8-carboxamide] were 4.1 nM and 114 nM.
As to `C=C[C@@H]1C[C@]1(NC(=O)[C@@H]1C[C@@H]2CN1C(=O)[C@H](C(C)(C)C)NC(=O)O[C@@H]1C[C@H]1CCCCCc1c(nc3c(F)cccc3c1OCCN1CCOCC1)O2)C(=O)NS(=O)(=O)C1(C)CC1` [Example 126, (1aR,5S,8S,10R,22aR)-5-tert-butyl-N-[(1R,2S)-2-ethenyl-1-{[(1-methylcyclopropyl)sulfonyl]carbamoyl}cyclopropyl]-13-fluoro-17-[2-(morpholin-4-yl)ethoxy]-3,6-dioxo-1,1a,3,4,5,6,9,10,18,19, 20,21,22,22a-tetradecahydro-8H-7,10-methanocyclopropa[18,19][1,10,3,6] dioxadiazacyclononadecino[11,12-b] quinoline-8-carboxamide], the Ki in assay [1] was 0.4 nM; in assay [2], 7.7 nM.
Taken in the same sequence, the figures for `C=C[C@@H]1C[C@]1(NC(=O)[C@@H]1C[C@@H]2CN1C(=O)[C@H](C(C)(C)C)NC(=O)O[C@@H]1C[C@H]1CCCCCc1c(nc3c(OC)cccc3c1OCCN1CCOCC1)O2)C(=O)NS(=O)(=O)C1(C)CC1` [Example 127, (1aR,5S,8S,10R,22aR)-5-tert-butyl-N-[(1R,2S)-2-ethenyl-1-{[(1-methylcyclopropyl)sulfonyl]carbamoyl}cyclopropyl]-13-methoxy-17-[2-(morpholin-4-yl)ethoxy]-3,6-dioxo-1,1a,3,4,5,6.9, 10,18,19,20,21,22,22a-tetradecahydro-8H-7,10-methanocyclopropa [18,19][1,10,3,6]dioxadiaza cyclononadecino[11,12-b]quinoline-8-carboxamide] were 0.11 nM and 2.1 nM.
Turning to `C=C[C@@H]1C[C@]1(NC(=O)[C@@H]1C[C@@H]2CN1C(=O)[C@H](C1CCCCC1)NC(=O)O[C@@H]1C[C@H]1CCCCCc1c(nc3c(OC)cccc3c1OCCN1CCOCC1)O2)C(=O)NS(=O)(=O)C1(C)CC1` [Example 128, (1aR,5S,8S,10R,22aR)-5-cyclohexyl-N-[(1R,2S)-2-ethenyl-1-{[(1-methylcyclopropyl)sulfonyl]carbamoyl}cyclopropyl]-13-methoxy-17-[2-(morpholin-4-yl)ethoxy]-3,6-dioxo-1,1a,3,4,5,6,9, 10,18,19,20,21,22,22a-tetradecahydro-8H-7,10-methanocyclopropa [18,19][1,10,3,6]dioxadiaza cyclononadecino[11,12-b]quinoline-8-carboxamide], the Ki in assay [1] stood at 0.41 nM; in assay [2], 13 nM.
In the case of `C=C[C@@H]1C[C@]1(NC(=O)[C@@H]1C[C@@H]2CN1C(=O)[C@H](C(C)(C)C)NC(=O)O[C@@H]1C[C@H]1CCCCCc1c(nc3cc(C(F)(F)F)ccc3c1OCCN1CCOCC1)O2)C(=O)NS(=O)(=O)C1(C)CC1` [Example 129, (1aR,5S,8S,10R,22aR)-5-tert-butyl-N-[(1R,2S)-2-ethenyl-1-{[(1-methylcyclopropyl)sulfonyl]carbamoyl}cyclopropyl]-17-[2-(morpholin-4-yl)ethoxy]-3,6-dioxo-14-(trifluoromethyl)-1,1a,3,4,5,6,9,10,18,19,20,21,22,22a-tetradecahydro-8H-7,10-methanocyclopropa[18,19][1,10,3,6] dioxadiazacyclononadecino[11,12-b] quinoline-8-carboxamide], the inhibitory constant (Ki) in assay [1] stood at 0.51 nM; in assay [2], 8.7 nM.
Taken in the same sequence, the figures for `C=C[C@@H]1C[C@]1(NC(=O)[C@@H]1C[C@@H]2CN1C(=O)[C@H](C(C)(C)C)NC(=O)O[C@@H]1C[C@H]1CCCCCc1c(nc3ccccc3c1OCCN(C)c1ccccc1)O2)C(=O)NS(=O)(=O)C1(C)CC1` [Example 130, (1aR,5S,8S,10R,22aR)-5-tert-butyl-N-[(1R,2S)-2-ethenyl-1-{[(1-methylcyclopropyl)sulfonyl]carbamoyl}cyclopropyl]-17-{2-[methyl(phenyl)amino]ethoxy}-3,6-dioxo-1,1a,3,4,5,6,9,10,18,19, cyclopropa[18,19][1,10,3,6] dioxadiazacyclononadecino [11,12-b]quinoline-8-carboxamide] were 2.2 nM and 18 nM.
